Where two headings read alike, the source gives them in different places.

The text below walks through data of patent US4880817A, “O-functionalized derivatives of substituted isoquinolin-3-ols having cardiotonic and/or phosphodiesterase fraction III inhibiting properties and/or renal vasodilating properties” (Ortho Pharmaceutical Corporation, priority 1987, dated 1989).

The test system of experiment [1] is adult mongrel dogs. Kind of experiment: Acute in vivo cardiotonic activity in anesthetized dogs. On the set-up: species or system mongrel dog. The note with it: Canis lupus familiaris, dose 1.87 mpk, iv, relative to controls. Here is the method: The acute in vivo cardiotonic activity of compounds prepared according to the present invention was determined according to a modification of the procedure described by Alousi et al., Circ.
In particular, adult mongrel dogs were anesthetized with sodium pentobarbital and were artificially respired. Arterial pressure was monitored via a femoral artery, and the pulse pressure was used to trigger a cardiotachometer for heart rate. Left ventricular pressure was determined with a Millar catheter, and dP/dT (the change in ventricular pressure with time) was derived. Cardiac output was determined by measuring ascending aortic blood flow with an electromagnetic flow probe, and myocardial contractile force was measured with a Walton Brodie strain gauge sutured to the right ventricle. Lead II EKG was also recorded.
A standard dose (10 μg/kg/min) of dopamine was administered to assess myocardial responsiveness.
Compounds of the invention were administered by intravenous infusion and the effects on cardiovascular parameters were determined.

Experiment [2] deals with adult mongrel dogs. Briefly: Renal vasodilating activity in anesthetized dogs. Format: in vivo, mongrel dog. The note with it: Canis lupus familiaris. Summed up:
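In anesthetized adult mongrel dogs, renal artery flow was measured electromagnetically, with carotid blood pressure and heart rate also recorded. Compound was infused i.v. or intra-renal-artery at rising, usually 3-fold, rates for 5 min each, after a 3 μg/kg/min dopamine check. Values are maximal % changes from pre-drug control in RBF, RVR (MABP/RBF), MABP and HR.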

Experiment [3] addresses T1, Phosphodiesterase Fraction III (Canis lupus familiaris, UniProt A0A8I3NYE0).
T1 construct: The fraction III enzyme was isolated as an isomzyme from the crude canine heart homogenate; from tissue; host or cells: canine heart (crude homogenate, ion exchange chromatography)
T1 sequence (A0A8I3NYE0 1-1135): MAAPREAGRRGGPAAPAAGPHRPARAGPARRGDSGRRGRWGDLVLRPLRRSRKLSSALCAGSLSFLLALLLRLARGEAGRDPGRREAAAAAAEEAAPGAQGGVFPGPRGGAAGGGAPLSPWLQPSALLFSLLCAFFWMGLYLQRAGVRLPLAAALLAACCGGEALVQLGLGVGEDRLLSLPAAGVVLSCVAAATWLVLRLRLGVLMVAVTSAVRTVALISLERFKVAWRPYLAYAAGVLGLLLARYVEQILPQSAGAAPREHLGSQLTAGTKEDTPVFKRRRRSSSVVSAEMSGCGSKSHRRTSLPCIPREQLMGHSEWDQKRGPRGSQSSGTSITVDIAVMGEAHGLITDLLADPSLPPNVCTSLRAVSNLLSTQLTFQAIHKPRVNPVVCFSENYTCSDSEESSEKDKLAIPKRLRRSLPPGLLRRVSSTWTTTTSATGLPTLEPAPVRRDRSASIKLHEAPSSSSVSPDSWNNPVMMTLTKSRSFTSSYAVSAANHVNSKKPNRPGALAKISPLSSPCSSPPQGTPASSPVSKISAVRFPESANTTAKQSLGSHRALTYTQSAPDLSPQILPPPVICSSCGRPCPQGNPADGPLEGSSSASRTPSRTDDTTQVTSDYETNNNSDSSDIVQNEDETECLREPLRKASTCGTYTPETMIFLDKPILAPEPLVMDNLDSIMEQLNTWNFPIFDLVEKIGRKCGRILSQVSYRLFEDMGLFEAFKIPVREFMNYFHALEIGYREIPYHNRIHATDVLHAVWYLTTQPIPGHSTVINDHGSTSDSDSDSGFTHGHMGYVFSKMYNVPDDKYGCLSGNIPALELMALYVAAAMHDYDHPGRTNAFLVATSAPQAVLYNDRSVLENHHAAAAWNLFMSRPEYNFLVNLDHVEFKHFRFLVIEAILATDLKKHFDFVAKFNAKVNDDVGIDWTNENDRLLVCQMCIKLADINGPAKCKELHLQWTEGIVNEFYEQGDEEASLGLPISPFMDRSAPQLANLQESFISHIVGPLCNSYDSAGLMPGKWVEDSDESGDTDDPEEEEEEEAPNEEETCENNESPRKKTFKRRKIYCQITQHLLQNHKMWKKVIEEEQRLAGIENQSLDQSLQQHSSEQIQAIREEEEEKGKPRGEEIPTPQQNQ
Kind of experiment: Inhibition of phosphodiesterase fraction III activity. Format: biochemical, canine. Here is the method:
Thompson et al. described a cyclic nucleotide phosphodiesterase assay in Advances in Cyclic Nucleotide Research, Brooker et al., eds., 10, 69-92 (1979). The following procedure is based on that published assay and measures the ability of compounds to inhibit cyclic nucleotide phosphodiesterase which is an enzyme that converts either cyclic AMP or cyclic GMP to the noncyclized AMP or GMP, respectively.
Compounds were tested at various concentrations in the presence of cyclic AMP (0.10-1.0 μM containing 0.2 microCuries ^3 H-cyclic AMP), cyclic nucleotide phosphodiesterase, and 0.05M Tris-Cl buffer (pH 7.4, containing 5 mM magnesium chloride). After a specified time, the reaction was stopped by heating to 100° C. for 1 minute. After cooling, 0.10 ml of a solution containing snake venom (1 mg/ml) was added, and the reaction was allowed to proceed for 30 min. Termination of this reaction was accomplished by the addition of 1.0 ml of 33 percent DOWEX AGl×8 resin slurry (Dow Chemical Co., Midland, MI) to separate the product from the unconverted substrate. An aliquot was removed from the supernatant and analyzed by liquid scintillation spectrometry.
The fraction III enzyme was isolated as an isomzyme from the crude canine heart homogenate by ion exchange chromatography. The enzyme activity was designated fraction III since it is the third and last phosphodiesterase activity to be eluted from the chromatographic column. The fraction III enzyme has a relatively high affinity and specificity for the cyclic AMP.
Data are presented as the IC50 which is the concentration (in micromoles) of a compound that was required to inhibit 50 percent of the cyclic nucleotide phosphodiesterase activity.

For another experiment, the system named is platelet aggregation. Particulars: reported in U.S. Pat. No. 3,870,721; cited from earlier work.
The mark [4] stands for this setting: read-out: CF: percent change in cardiac force.
The mark [5] stands for this setting: read-out: HR: percent change in heart rate.
[6] abbreviates: read-out: MABP: percent change in mean arterial blood pressure.
Where [7] appears, read: read-out: dP/dT: maximum percent change in left ventricular pressure with time.
The mark [8] stands for this setting: cyclic AMP 0.10-1.0 μM, pH 7.4, enzyme from canine heart homogenate, read-out: IC50.
The mark [9] stands for this setting: read-out: HR: percent change in heart rate, dose 6.2 mpk, relative to controls.
[10] abbreviates: read-out: MABP: percent change in mean arterial blood pressure, dose 6.2 mpk, relative to controls.
The mark [11] stands for this setting: read-out: RBF: percent change in renal blood flow, dose 6.2 mpk, relative to controls.
[12] abbreviates: read-out: RVR: percent change in renal vascular resistance, dose 6.2 mpk, relative to controls.

`CCCCOc1cc2c(C)nc(OC(C)=O)c([N+](=O)[O-])c2cc1OC` [Cmpd 22]: the change in vivo at 1.87 mg/kg in the experiment with adult mongrel dogs [1] (setting [4]) was 43%; in the experiment with adult mongrel dogs [1] (setting [5]), 2%; in the experiment with adult mongrel dogs [1] (setting [6]), -23%; in the experiment with adult mongrel dogs [1] (setting [7]), 68%. The change in vivo at 6.2 mg/kg was 25% in the experiment with adult mongrel dogs [2] (dose 6.2 mpk, relative to controls, read-out: HR: percent change in heart rate); -12% with adult mongrel dogs [2] (dose 6.2 mpk, relative to controls, read-out: MABP: percent change in mean arterial blood pressure); 11% in the experiment on adult mongrel dogs [2] (dose 6.2 mpk, relative to controls, read-out: RBF: percent change in renal blood flow); -22% in the experiment on adult mongrel dogs [2] (dose 6.2 mpk, relative to controls, read-out: RVR: percent change in renal vascular resistance). In addition, the IC50 in experiment [3] (setting [8]) was determined as 3.5 µM.
Turning to `CCOc1cc2c(C)nc(OC(=O)N(C)C)c([N+](=O)[O-])c2cc1OC` [Cmpd 10], the change in vivo at 1.87 mg/kg in the experiment on adult mongrel dogs [1] (setting [4]) is 70%; in the experiment on adult mongrel dogs [1] (setting [5]), -6%; with adult mongrel dogs [1] (setting [6]), 18%; in the experiment with adult mongrel dogs [1] (setting [7]), 91%. Moreover, the change in vivo at 6.2 mg/kg is 10% with adult mongrel dogs [2] (setting [9]), -12% with adult mongrel dogs [2] (setting [10]), 46% in the experiment on adult mongrel dogs [2] (setting [11]) and -39% in the experiment on adult mongrel dogs [2] (setting [12]). Besides, in experiment [3], half-maximal inhibition (IC50) required 45 µM.
As to `CC(=O)NC1C(=O)NC(=O)c2ccccc21` (centres unmarked) [4-acetamido-1,2,3,4-tetrahydro 1,3-isoquinolinedione], the “inhibition of platelet aggregation” value in the experiment on platelet aggregation is “inhibit platelet aggregation”.
Turning to `COc1cc2c(C)nc(OC(=O)N(c3ccccc3)c3ccccc3)c([N+](=O)[O-])c2cc1OC` [Cmpd 34], the change in vivo at 6.2 mg/kg was 21% in the experiment on adult mongrel dogs [2] (setting [9]), -10% in the experiment on adult mongrel dogs [2] (setting [10]), 37% in the experiment on adult mongrel dogs [2] (setting [11]) and -35% in the experiment with adult mongrel dogs [2] (setting [12]). The compound also showed an IC50 in experiment [3] of 35 µM.
Consider `CCOc1cc2c(C)nc(OC(=O)c3ccc(OC)cc3)c([N+](=O)[O-])c2cc1OC` [Cmpd 11], for which the change in vivo at 1.87 mg/kg in the experiment on adult mongrel dogs [1] (setting [4]) was 126%; in the experiment with adult mongrel dogs [1] (setting [5]), 25%; with adult mongrel dogs [1] (setting [6]), -17%; in the experiment on adult mongrel dogs [1] (setting [7]), 47%. For the same compound, the IC50 in experiment [3] (setting [8]) was 30 µM.
